Where two headings read alike, the source gives them in different places.
How the values were obtained:
[1] = test system: Na+ channels in rat brain synaptosomes; assay type: cell-based
[2] = test system: Na+ channels in synaptosomes; conditions: cited from earlier work; for Synaptosome depolarization: ref VER: Goldring and Blaustein, BTX: Krueger and Blaustein, 1978
[3] = test system: Na+ channels in rat brain synaptosomes; experiment: Synaptosome membrane potential; assay type: cell-based
[4] = test system: voltage-dependent Na+ channels in excitable membranes; conditions: cited from earlier work; for Effect on kinetics of activation and inactivation of Na+ channels: electrophysiology, Khodorov et al.; for Effect on kinetics of activation and inactivation of Na+ channels / Use dependence of activator effects: ref Ulbricht, 1969; for Use dependence of activator effects: intact nerve preparations, Albuquerque et al., Bartels-Bernal et al., 1977, Revenko; for Opening of Na+ channels: Catterall
[5] = test system: Na+ channels, neuroblastoma cells; conditions: ref Catterall (1977 b); cited from earlier work
[6] = ref Albuquerque et al., 1973, 1975
[7] = ref Narahashi and Seyama, 1974, 1977 b

## COc1ccc(C(=O)O[C@H]2CC[C@@]3(C)[C@@H]4CC[C@H]5[C@]6(O)C[C@H](O)[C@@]7(O)[C@@H](CN8C[C@@H](C)CC[C@H]8[C@@]7(C)O)[C@]6(O)C[C@@]53O[C@]24O)cc1OC [VER, veratridine]
[1]; 0.1 μM LqTX
  Maximal effect of VER on Na+ uptake with LqTX: increased in the presence of LqTX to the same level observed in the presence of 10 ~M BTX
[1]; 1 μM AxTX
  Na+ uptake at maximally effective VER with AxTX: increased in the presence of AxTX
[2]; ref Blaustein, 1975, Cotman et al., 1976
  Release of neurotransmitters from synaptosomes: VER-stimu- lated release of neurotransmitters
[2]; ref Blaustein, 1975, Nachshen and Blaustein, 1979
  Ca2+ uptake into synaptosomes: VER-stimulated Ca2+ uptake
[2]; ref Li and White (1977), Matthews et al. (1979)
  Uptake of Na+ into synaptosomes: VER-stimulated, TTX-sensitive uptake of Na + into synaptosomes
[2]; 1975
  Synaptosome depolarization: induced synaptosome depolarization
[3]; data not shown
  Time to complete depolarizing effect: up to 5 min
[3]; highest concentration tested, 300 μM VER, no LqTX
  Depolarization relative to maximally effective BTX or 150 mM K+ (ΔF = 100%): 50-60%
[4]; 1975
  Effect on kinetics of activation and inactivation of Na+ channels: alter the kinetic properties of the rapid, voltage-sensitive activation and inactivation of Na + channels
[4]; 1973
  Use dependence of activator effects: use dependent
[4]; [6]
  Opening of Na+ channels: open TTX-sensitive Na + channels
[5]
  Preference of binding to open over nonopen states: ~ 600 times

## CCN1C[C@]2(COC)[C@H](O)C[C@H](OC)[C@@]34[C@@H]5C[C@@]6(O)[C@H](OC(=O)c7ccccc7)[C@@H]5[C@@](OC(C)=O)([C@@H]([C@H](OC)[C@H]23)[C@@H]14)[C@@H](O)[C@@H]6OC [aconitine]
[4]; [7]
  Opening of Na+ channels: open Na + channels

## COC(=O)[C@@H]1[C@H]2C[C@H]3c4[nH]c5ccccc5c4CCN3C[C@@H]2CC[C@@H]1O [yohimbine]
[4]; ref Huang et al., 1978
  Antagonism of Na+ channel openers: competitive antagonist of these agents

## Grayanotoxin
[4]; [7]
  Opening of Na+ channels: open Na + channels

## anthopleurin-A [AxTX]
[1]; 1 μM AxTX
  Potentiation of BTX by AxTX: potentiated the effects of BTX without itself greatly increasing Na + uptake
  Potentiation of VER by AxTX: potentiated the effects of VER
[1]; absence of VER or BTX
  Effect of AxTX alone on Na+ uptake: small increase in Na + uptake

## batrachotoxin [BTX]
[1]; 0.1 μM LqTX
  Effect of BTX >0.3 μM in presence of LqTX: slightly inhibitory
[1]; 10 μM BTX
  BTX-stimulated 22Na influx during the second s of incubation: slightly less than that during the first s
[1]; 10 μM BTX, 2 s uptake, 2.5-30 mM Na+
  Na+ concentration up to which BTX-stimulated uptake is proportional to Na+: up to 5 mM
[1]; 10 μM BTX, 5 min at 30°C, 5 mM Na+
  Na+ uptake rate: ~ 1 nmol s-1 mg-1
[1]; each of three experiments
  Maximal Na+ uptake by BTX without vs with LqTX: slightly greater in the absence than in the presence of LqTX
[1]; presence of 10 μM BTX, 30°C
  Time to isotopic equilibrium: about 5 s
[2]; 1975
  Synaptosome depolarization: induced synaptosome depolarization
[3]; 30 μM BTX, 140 Ch + 5 Na + 5 K, data not shown
  Fluorescence increase in low-Na medium: same amount as did increasing the external K concentration from 5 to 8 mM
[3]; data not shown
  Time to complete depolarizing effect: up to 5 min
[3]; maximally effective concentration of BTX, no LqTX
  Maximal depolarization, ΔF (% of 150 mM K+): 100%
[4]; 1975
  Effect on kinetics of activation and inactivation of Na+ channels: alter the kinetic properties of the rapid, voltage-sensitive activation and inactivation of Na + channels
[4]; 1973
  Use dependence of activator effects: use dependent
[4]; [6]
  Opening of Na+ channels: open TTX-sensitive Na + channels

From paper PMC2228596 (The Journal of General Physiology, 1980)
